Reference: PMC3648463, “Common Interactions between S100A4 and S100A9 Defined by a Novel Chemical Probe” (PLoS ONE, 2013)

Tests used:
[1] = target: T1, S100A4 (Homo sapiens, UniProt P26447); assay: SPR direct binding to amine-coupled S100A4; SPR inhibition of S100A4 binding to immobilized RAGE (IC50 […], Figure 5C)
T1 construct: human S100A4 (R&D Systems)

[2] = target: T2, S100A9 (Homo sapiens, UniProt P06702); assay: SPR direct binding to amine-coupled S100A9; SPR inhibition of S100A9 binding to immobilized RAGE (IC50 […]) and TLR4 ([…])
T2 construct: recombinant human S100A9 (produced in E. coli)
T2 sequence (P06702 1-114): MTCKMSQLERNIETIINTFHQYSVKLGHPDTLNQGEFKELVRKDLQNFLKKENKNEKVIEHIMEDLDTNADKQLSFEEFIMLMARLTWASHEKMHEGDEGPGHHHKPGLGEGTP

T1 sequence (P26447 2-101): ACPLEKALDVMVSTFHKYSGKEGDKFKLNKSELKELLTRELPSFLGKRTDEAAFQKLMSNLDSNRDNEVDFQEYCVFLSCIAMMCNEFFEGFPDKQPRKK

With `O=C(Nc1cc(Cl)cc(Cl)c1O)c1c(O)c(Cl)cc(Cl)c1Cl` [OX, Oxyclozanide] the IC50 [1] was 52 µM and the IC50 [2] was about 1.3 µM.
